Where a SMILES comes first, the peptide text is derived from it. [ ]: non-standard residue; d: D form. The star is where a group is joined. Myristoyl = CCCCCCCCCCCCCC(=O)*; 12Ado = NCCCCCCCCCCCC(=O)O
Columns and labels:
[1] = tested on: cultivable oral microflora; experiment: Bacterial killing in whole human saliva; assay type: cell-based; details: within two minutes of exposure, 37 °C
Protocol: Bactericidal kinetics in saliva was assessed as follows. Whole saliva was pooled from two-three healthy volunteers at a time, after obtaining their informed consent. To test for specific activity against S. mutans, saliva was centrifuged for 5 min at 15,000 g and 4 °C, and the supernatant was spiked with 1 × 10^7 CFU/ml of mid-log-phase S. mutans 35668. Otherwise, activity against natural oral microflora was also performed on whole saliva. Saliva was mixed with the tested compound, incubated at 37 °C with shaking, and aliquots were taken at t = 0, 2, 5 and 10 min. Aliquots were subjected to serial 10-fold dilutions in saline and plated on BHI agar for enumeration.

S. aureus 29213 = assay type: cell-based, Staphylococcus aureus
Protocol: (§1) Minimal inhibitory concentration (MIC) was determined using the microdilution assay. Mid-log-phase bacteria at 5 × 10^5 CFU/ml were incubated in a 96-well plate with serial two-fold dilutions of the tested compound for 18–24 hr at 37 °C (final volume of 200 µl). O.D. at 620 nm was measured (Synergy HT, BioTek Instruments, Winooski, VT, USA), and the MIC was determined as the lowest concentration for which no increase in O.D. was detected.

Porphyromonas = assay type: cell-based, Porphyromonas gingivalis; details: 48 h
Source text: (§2) Gram-negative bacteria tested were: ATCC strains Escherichia coli 25922, 43894, Pseudomonas aeruginosa 27853, 9027, Acinetobacter baumannii 19606, A. caloaceticus 31299, Salmonella Typhimurium 14028, Fusobacterium nucleatum 23726, Porphyromonas gingivalis 53977, clinical isolates E. coli 14182, 14384, U-16327, U-16329, P. aeruginosa 1278, Klebsiella pneumoniae 1287, K2–224, C2, A. baumannii 1279, 1280, 1281, F. nucleatum PK 1594, the engineered E. coli ML-35p and the isogenic K-12 pair AG100, AG100a (ΔacrAB). Dental related bacteria (generous gift of Prof. Doron Steinberg and Gilad Bachrach from the Hebrew University of Jerusalem) appear in bold characters.
Staphylococci, Bacilli, Escherichia, Pseudomonas, Acinetobacter, Salmonella and Klebsiella species were grown in Luria Bertani broth (LB; 5 gr/l NaCl, 5 gr/l yeast extract, 10 gr/l tryptone). Enterococci and E. coli ML-35p were grown in Tryptic Soy Broth (TSB). Listeria and Streptococci were grown in Brain Heart Infusion (BHI). All bacteria were grown over-night at 37 °C with shaking. S. mutans 35668 plated on BHI agar for enumeration was grown for 48 hr. […]
Minimal inhibitory concentration (MIC) was determined using the microdilution assay. […] O.D. at 620 nm was measured (Synergy HT, BioTek Instruments, Winooski, VT, USA), and the MIC was determined as the lowest concentration for which no increase in O.D. was detected.

[2] = Hydrophobicity by C18 RP-HPLC elution; assay type: physicochemical; details: chromatographic, RP-HPLC C18 (Vydac), flow 2 ml/min, linear acetonitrile gradient 1%/min
Protocol: OAKs were synthesized in-house (433 A Peptide Synthesizer; Applied Biosystems, Foster City, CA, USA) by the solid-phase method using 9-fluorenylmethyloxycarbonyl (Fmoc) active-ester chemistry on 4-methylbenzhydrylamine (MBHA) resin. OAKs were then deprotected and cleaved from the resin using trifluoroacetic acid:H2O (95:5) and purified to >95% chromatographic homogeneity by reverse phase high performance liquid chromatography (RP-HPLC) using C18 column (Vydac), a flow rate of 2 ml/min and a linear acetonitrile gradient of 1%/min (Alliance; Waters, Milford, MA, USA). Peaks identity was verified by mass-spectrometry (Xevo G2 Tof; Waters, Milford, MA, USA). Purified OAKs were then lyophilized and kept as dry powder at −20 °C.

E. coli 25922 = assay type: cell-based, Escherichia coli
Protocol: as §1

Klebsiella = assay type: cell-based
Source text: as §2
(§3) Staphylococci, Bacilli, Escherichia, Pseudomonas, Acinetobacter, Salmonella and Klebsiella species were grown in Luria Bertani broth (LB; 5 gr/l NaCl, 5 gr/l yeast extract, 10 gr/l tryptone). Enterococci and E. coli ML-35p were grown in Tryptic Soy Broth (TSB). Listeria and Streptococci were grown in Brain Heart Infusion (BHI). All bacteria were grown over-night at 37 °C with shaking. S. mutans 35668 plated on BHI agar for enumeration was grown for 48 hr. S. mutans UA159 was grown in 5% CO2 enriched atmosphere. Fusobacterium and Porphyromonas were grown in Wilkins-Chalgren growth medium and an anaerobic atmosphere.
as §1

Pseudomonas = assay type: cell-based; details: 3 strains; microdilution, LB, 18–24 hr, 37 °C; average of at least 2 independent experiments in duplicate
Source text: as §2, §3, §1

[3] = tested on: Gram-negative bacteria (GNB); assay type: cell-based; details: 24 GNB strains (seven species)
Source text: as §2, §3, §1

GPB and GNB = experiment: Effect observed at low concentrations, analog series; assay type: cell-based; details: summary of this and previous studies
Protocol: Table 2 Modulating biophysical properties of a core sequence by conjugating an N-terminal acyl. | column: Effect observed at low concentrations (<3 µM)

E. coli ML-35p = experiment: Outer and cytoplasmic membrane permeabilization (nitrocefin, ONPG, EtBr); assay type: cell-based, Escherichia coli; details: ONPG and ethidium bromide (CM), 30 min, 37 °C
Protocol: Cytoplasmic membrane permeation to ethidium bromide (EtBr) was evaluated as follows: Mid-log-phase bacteria at 1 × 10^8 CFU/ml were centrifuged for 5 min at 15,000 g. Pellet was washed twice with PBS containing 0.5% glucose (pH = 7.4), suspended in the same buffer and incubated for 10 min at 37 °C with shaking. 180 µl of the bacterial suspension were mixed in a 96-well plate with 25 µl of the tested compound and EtBr (EtBr final concentration = 1 µg/ml) and fluorescence was recorded immediately (excitation: 535 nm, emission: 590 nm) for up to 30 min at 37 °C with shaking (Synergy HT, BioTek Instruments, Winooski, VT, USA).
Outer and cytoplasmic membrane permeation in Gram-negative bacteria was assessed using the engineered E. coli ML-35p by monitoring the chromogenic hydrolysis of two indicators: ortho-nitrophenyl-β-galactoside (ONPG) and nitrocefin. Mid-log-phase E. coli ML-35p were centrifuged for 5 min at 15,000 g and the supernatant was removed. Pellet was washed three times with sodium phosphate buffer (SPB; 10 mM NaH2PO4, pH = 7) and suspended in the same buffer (O.D. at 620 nm = 1). Bacteria were then 10-fold diluted into SPB containing 3% TSB. […] Hydrolysis of ONPG and nitrocefin was monitored immediately by recording the absorbance at 420 nm and 486 nm respectively, for 30 min at 37 °C with shaking (Synergy HT, BioTek Instruments, Winooski, VT, USA).

Question: Which results are given for `CCCCCCCCCCCCCC(=O)N[C@@H](CCCCN)C(=O)N[C@@H](CCCCN)C(=O)NCCCCCCCCCCCC(=O)N[C@@H](CCCCN)C(N)=O` [C14KKc12K] (Myristoyl-KK[12Ado]K-NH2)?
Answer: reduction of viability of cultivable oral microflora [1]: > 99%; MIC (S. aureus 29213): 3 µM; MIC range (Porphyromonas): 3.12 µM; H, hydrophobicity, defined as % acetonitrile eluent in C18 HPLC column [2]: 54%; MIC (E. coli 25922): 6 µM; MIC range (Klebsiella): 3.12 to 12.5 µM; MIC range (Pseudomonas): 6.25 to 12.5 µM; MIC50 [3]: 6 µM; Effect observed at low concentrations (<3 µM) (GPB and GNB): High efficacy in membranes disruption leading to a bactericidal mode of action in both GPB & GNB; concentration (MIC value) at which both OM and CM were permeabilized (E. coli ML-35p): 3 µM
